The record followed here is publication PMC8252068, “Biochemical Investigation of the Interaction of pICln, RioK1 and COPR5 with the PRMT5–MEP50 Complex” (Chembiochem, 2021).

Read-outs that look alike come from different tables or passages of the source. Where a SMILES comes first, the peptide text is derived from it. The star is where a group is joined. FITC = O=C1OC2(c3ccc(O)cc3Oc3cc(O)ccc32)c2ccc(NC(=S)*)cc21; AEEA = NCCOCCOCC(=O)O

For assay [1], the target named is T1, native PRMT5–MEP50 complex (Homo sapiens, UniProt O14744+Q9BQA1).
T1 construct: Full‐length PRMT5–MEP50; 6His-MBP with 3C site (N, cleaved yes); made in house; host or cells: HighFive insect cells (flashBAC baculovirus system)
Briefly: Fluorescence polarisation direct binding assay, full-length PRMT5–MEP50. To be noted: 20-21 °C, n=3. The source says:
(§1) All proteins were expressed at the Protein Chemistry Facility (PCF) based in the MPI Dortmund.
For expression of the proteins, all constructs were subcloned into pOPIN vectors. […]
(§2) Expression of full-length human RioK1 tagged with 6NHis-3C and co-expression of full-length human PRMT5 (N-terminal 6His-MBP with 3C) with MEP50 (N-terminal 6His-TRX with 3C), and of TIM barrel (1-292 aa) with MEP50 (both N-terminally tagged with His-TRX with 3C cleavage site) was done using the Flash Bac Expression System (Oxford Expression Technologies, UK) with HighFive insect cells in Gibco Sf-900 III SFM medium. The cells were harvested by centrifugation and lysed.
(§3) All proteins were purified at the PCF (MPI Dortmund).
(§4) Protein purification was performed on HisTrap FF crude 5 ml Ni-based column, followed by the on-column treatment with 6His-tagged HRV-3C PreScission protease, or in case of the SUMO-tagged TIM barrel, with 6His-tagged SUMO protease. The cleaved proteins were then further purified using gel filtration chromatography with the HiLoad 26/60 Superdex 75 or 200 prep grade column. PRMT5 -MEP50, TIM-MEP50 and TIM barrel were stored in a buffer containing 50 mM HEPES, 250 mM NaCl, 1 mM TCEP with the pH adjusted to 8.0, whereas, pICln was stored in a buffer of 20 mM phosphate, 100 mM NaCl, 5 mM TCEP and pH of 7.5, whereas RioK1 was stored in a buffer of 50 mM Tris, 200 mM NaCl, 10% glycerol, 1 […]
(§5) Protein Labelling with Alexa 488
(§6) To a protein solution (ca. 1 mg/ml) in 0.2 M bicarbonate buffer with 1 mM TCEP at pH 8.3, was added 10 mM Alexa 488 NHS-ester in DMSO (8 equiv), and the mixture was kept on ice, in darkness, overnight. The protein was washed eight times with buffer (50 mM HEPES, 250 mM NaCl, 1 mM TCEP, 8.0 pH) using an Amicon® Ultra-0.5 mL spin filter. Protein concentration was then determined using the NanoDrop […]
(§7) Fluorescence Polarisation (FP)
(§8) The assay was performed in a buffer of 50 mM HEPES, 250 mM NaCl, 1 mM TCEP, 0.01% (v/v) Tween 20, pH 8.0, in black, 384 well-plates, with a total volume of 10 μl per well. The analysed, FITC labelled peptides, or Alexa488-labelled pICln or RioK1, were tested at a final concentration of 1 nM, and the appropriate unlabelled protein was titrated as two-fold dilution series. The plates were incubated at 20-21 °C for 30 min in case of FITC -labelled peptides or 1-2h in case of the Alexa488-labelled protein, and analysed on a plate reader using 485 nm excitation and 535 nm emission wavelength. The assay was performed in […]
On the technique in general: Polarisation of emitted light reports the rotation of a fluorescent probe.

The target of assay [2] is T2, TIM–MEP50 complex (PRMT5 residues 1–292 co-expressed with MEP50) (Homo sapiens, UniProt O14744+Q9BQA1).
T2 construct: truncated PRMT5 protein (residues 1–292), corresponding to the TIM barrel domain, was either expressed alone or co‐expressed as a complex with MEP50; His-TRX with 3C cleavage site (N, cleaved yes); made in house; host or cells: HighFive insect cells (flashBAC baculovirus system)
The assay can be described thus: Fluorescence polarisation direct binding assay, TIM–MEP50. To be noted: 20-21 °C, n=3. As for the experimental part: as §1
(§9) For expression of the proteins, all constructs were subcloned into pOPIN vectors.
(§10) Full-length human pICln, N-terminally tagged with 6His-TRX followed by the 3C cleavage site, and TIM barrel domain (1-292 aa) of human PRMT5, N-terminally tagged with 6His-SUMO, were expressed in BL21 CodonPlus (DE3) RIPL strain of Escherichia coli. Bacteria with the respective plasmids were cultured in Terrific Broth medium. Expression of TIM barrel was auto-induced, with incubation of the starter-culture (starting OD of ~0.05) at 35 °C for 2.5h, followed by an overnight incubation (20 -24h) at 25 °C. Expression of pICln was induced at OD ~0.6-0.8 using 0.3 mM IPTG and E. coli was incubated at 20 °C for 20h. Bacteria were harvested by centrifugation and lysed.
as §2, §3, §4, §5, §6, §7, §8

Assay [3] deals with T3, TIM barrel domain of PRMT5 (residues 1–292) (Homo sapiens, UniProt O14744).
T3 construct: barrel domain (1-292 aa) of human PRMT5, N-terminally tagged with 6His-SUMO; 6His-SUMO (N, cleaved yes); made in house; host or cells: Escherichia coli BL21 CodonPlus (DE3) RIPL
The assay can be described thus: Fluorescence polarisation direct binding assay, isolated TIM barrel. Here is the method: as §1, §9
as §10, with “lysed. […]” for “lysed.”
To a protein solution (ca. 1 mg/ml) in 0.2 M bicarbonate buffer with 1 mM TCEP at pH 8.3, was added 10 mM Alexa 488 NHS-ester in DMSO (8 equiv), and the mixture was kept on ice, in darkness, overnight. […] Protein concentration was then determined using the NanoDrop […]
as §7
The assay was performed in a buffer of 50 mM HEPES, 250 mM NaCl, 1 mM TCEP, 0.01% (v/v) Tween 20, pH 8.0, in black, 384 well-plates, with a total volume of 10 μl per well. The analysed, FITC labelled peptides, or Alexa488-labelled pICln or RioK1, were tested at a final concentration of 1 nM, and the appropriate unlabelled protein was titrated as two-fold dilution series. The plates were incubated at 20-21 °C for 30 min in case of FITC -labelled peptides or 1-2h in case of the Alexa488-labelled protein, and analysed on a plate reader using 485 nm excitation and 535 nm emission wavelength. […]

The target of another assay is T4, PRMT5–MEP50 (Homo sapiens, UniProt O14744+Q9BQA1).
T4 construct: Full‐length PRMT5–MEP50; 6His-MBP with 3C site (N, cleaved yes); made in house; host or cells: HighFive insect cells (flashBAC baculovirus system)
Briefly: Flow induced dispersion analysis (FIDA), PRMT5–MEP50. The settings on record: technical triplicate. It counts as binding. As for the experimental part: (§11) Nucleodur C18 Gravity column, with a flow rate of 0.56 ml/min, and the samples obtained from the stability assay were tested using 125 mm x 3 mm, 5 μm Macherey-Nagel Nucleodur C4 Gravity at a flow rate of 1 ml/min, in both cases using elution system: 5% → 65% MeCN (0.1% TFA) in H2O (0.1% TFA) over 14 min. HRMS analyses were performed on a LTQ Orbitrap mass spectrometer (Thermo Fisher Scientific, USA) using electrospray ionization. Concentrations of PRMT5 -MEP50, TIM -MEP50 and TIM were measured with the Bradford assay, using Protein Assay Dye Reagent from Bio -Rad (Cat. #500-0006; Bio- […]

The target of the next assay is T5, TIM–MEP50 (Homo sapiens, UniProt O14744+Q9BQA1).
T5 construct: truncated PRMT5 protein (residues 1–292), corresponding to the TIM barrel domain, was either expressed alone or co‐expressed as a complex with MEP50; His-TRX with 3C cleavage site (N, cleaved yes); made in house; host or cells: HighFive insect cells (flashBAC baculovirus system)
The assay can be described thus: Flow induced dispersion analysis (FIDA), TIM–MEP50. The settings on record: technical triplicate. It counts as binding. As for the experimental part: as §11

The mark [4] stands for this setting: FP using the native PRMT5–MEP50 complex, FITC peptide 1 nM, pH 8.0, 30 min, n.b. = no binding, read-out: K D (Table 2, peptides 1–16).
[5] abbreviates: FP direct binding, FITC peptide 1 nM, protein titrated, HEPES buffer pH 8.0, 30 min, n.b. = no binding, read-out: K D value, TIM–MEP50.

T1 sequence (O14744 whole entry): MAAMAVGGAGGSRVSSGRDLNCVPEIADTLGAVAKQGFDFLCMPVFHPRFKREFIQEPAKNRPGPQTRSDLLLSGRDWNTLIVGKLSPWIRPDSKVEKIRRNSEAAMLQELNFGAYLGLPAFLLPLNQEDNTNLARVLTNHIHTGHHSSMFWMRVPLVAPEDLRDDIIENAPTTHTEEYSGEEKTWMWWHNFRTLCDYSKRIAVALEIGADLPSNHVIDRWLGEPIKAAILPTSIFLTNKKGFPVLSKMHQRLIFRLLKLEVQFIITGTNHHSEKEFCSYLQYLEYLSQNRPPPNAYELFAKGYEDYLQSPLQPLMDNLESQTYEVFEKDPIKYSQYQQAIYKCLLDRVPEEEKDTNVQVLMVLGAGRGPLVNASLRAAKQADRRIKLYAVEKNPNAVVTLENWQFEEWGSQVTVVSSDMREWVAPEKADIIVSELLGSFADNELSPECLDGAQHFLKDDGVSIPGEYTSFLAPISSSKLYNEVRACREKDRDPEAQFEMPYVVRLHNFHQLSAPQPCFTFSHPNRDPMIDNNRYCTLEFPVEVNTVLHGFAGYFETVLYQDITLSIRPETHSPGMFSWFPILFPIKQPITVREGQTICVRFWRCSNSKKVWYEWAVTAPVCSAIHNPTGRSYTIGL
T1 sequence (Q9BQA1 whole entry partner): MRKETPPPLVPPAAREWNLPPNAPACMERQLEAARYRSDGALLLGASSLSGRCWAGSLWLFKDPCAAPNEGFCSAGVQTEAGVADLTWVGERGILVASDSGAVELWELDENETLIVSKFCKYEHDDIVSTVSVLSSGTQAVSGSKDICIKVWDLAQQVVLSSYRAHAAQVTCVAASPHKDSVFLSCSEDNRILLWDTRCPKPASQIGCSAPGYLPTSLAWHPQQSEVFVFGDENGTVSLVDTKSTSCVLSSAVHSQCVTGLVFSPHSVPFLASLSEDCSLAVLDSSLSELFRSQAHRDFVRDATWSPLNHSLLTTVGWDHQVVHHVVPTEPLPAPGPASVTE
T3 sequence (O14744 1-292): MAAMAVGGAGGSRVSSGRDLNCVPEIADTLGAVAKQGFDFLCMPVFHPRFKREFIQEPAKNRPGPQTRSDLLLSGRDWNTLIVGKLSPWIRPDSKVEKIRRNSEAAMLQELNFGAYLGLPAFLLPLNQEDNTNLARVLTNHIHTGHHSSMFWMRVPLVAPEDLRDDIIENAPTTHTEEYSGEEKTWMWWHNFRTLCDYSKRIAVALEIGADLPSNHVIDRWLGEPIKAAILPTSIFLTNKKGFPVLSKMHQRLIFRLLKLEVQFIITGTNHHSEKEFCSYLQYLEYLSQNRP
T2 sequence (O14744 1-292): as above
T2 sequence (Q9BQA1 whole entry partner, the tested form may be a part): as the sequence (Q9BQA1 whole entry partner) above
T4 sequence (O14744 whole entry): as the sequence (O14744 whole entry) above
T4 sequence (Q9BQA1 whole entry partner): as the sequence (Q9BQA1 whole entry partner) above
T5 sequence (O14744 1-292): as the sequence (O14744 1-292) above
T5 sequence (Q9BQA1 whole entry partner, the tested form may be a part): as the sequence (Q9BQA1 whole entry partner) above

For `CC(C)[C@H](NC(=O)[C@H](CCCNC(=N)N)NC(=O)[C@H](CO)NC(=O)COCCOCCNC(=S)Nc1ccc2c(c1)C(=O)OC21c2ccc(O)cc2Oc2cc(O)ccc21)C(=O)N[C@H](C(=O)N1CCC[C@H]1C(=O)NCC(=O)N[C@@H](CCC(N)=O)C(=O)N[C@@H](Cc1ccccc1)C(=O)N[C@@H](CC(=O)O)C(=O)N[C@@H](CC(=O)O)C(=O)N[C@@H](C)C(=O)N[C@@H](CC(=O)O)C(N)=O)C(C)C` [compound 1] ({FITC-AEEA}-SRVVPGQFDDAD-NH2), the Kd was determined as 522 ± 45 nM in assay [1] (setting [4]), 840 ± 150 nM in assay [2] (setting [5]) and 2800 ± 70 nM in assay [3].

`CC(C)[C@H](NC(=O)[C@@H](NC(=O)[C@@H]1CCCN1C(=O)[C@@H](NC(=O)COCCOCCNC(=S)Nc1ccc2c(c1)C(=O)OC21c2ccc(O)cc2Oc2cc(O)ccc21)[C@@H](C)O)[C@@H](C)O)C(=O)N[C@@H](C)C(=O)NCC(=O)N[C@@H](CCC(N)=O)C(=O)N[C@@H](Cc1ccccc1)C(=O)N[C@@H](CCC(=O)O)C(=O)N[C@@H](CC(=O)O)C(=O)N[C@@H](C)C(=O)N[C@@H](CC(=O)O)C(N)=O` [compound 2] ({FITC-AEEA}-TPTVAGQFEDAD-NH2): the Kd in assay [1] (setting [4]) came to 1140 ± 38 nM; in assay [2] (setting [5]) it was 2100 ± 150 nM; in assay [3], 5800 ± 110 nM.

On to `CSCC[C@H](NC(=O)COCCOCCNC(=S)Nc1ccc2c(c1)C(=O)OC21c2ccc(O)cc2Oc2cc(O)ccc21)C(=O)N[C@H](C(=O)N[C@@H](Cc1ccccc1)C(=O)N[C@@H](CCC(=O)O)C(=O)N[C@H](C(=O)NCC(=O)N[C@@H](CCC(N)=O)C(=O)N[C@@H](Cc1ccccc1)C(=O)N[C@@H](CC(=O)O)C(=O)N[C@@H](CC(=O)O)C(=O)N[C@@H](C)C(=O)N[C@@H](CCC(=O)O)C(=O)N[C@@H](CC(=O)O)C(N)=O)[C@@H](C)O)C(C)C` [compound 3] ({FITC-AEEA}-MVFETGQFDDAED-NH2), for which the Kd in assay [1] (setting [4]) is 549 ± 119 nM; in assay [2] (setting [5]) it was 460 nM; in assay [3], 2400 ± 320 nM.

With “Fitc‐O2Oc‐PTVAGQF‐NH2 [compound 4, DAB1 derived, fluorescently labelled linear peptide]”, the “K D value, Full‐length PRMT5–MEP50” value in assay [1] (FP direct binding, FITC peptide 1 nM, protein titrated two-fold, 50 mM HEPES, 250 mM NaCl, 1 mM TCEP, 0.01% Tween 20, pH 8.0, 30 min, n.b. = no binding) is “did not have affinity and n.b”. The “K D (Table 2, peptides 1–16)” value in assay [1] (FP using the native PRMT5–MEP50 complex, FITC peptide 1 nM, pH 8.0, 30 min, n.b. = no binding) is reported as “n.b”. In addition, in assay [2] (FP direct binding, FITC peptide 1 nM, protein titrated, HEPES buffer pH 8.0, 30 min, n.b. = no binding), the “K D value, TIM–MEP50” value was “did not have affinity and n.b”.

As to “pICln-Alexa488: full-length human pICln labelled with the fluorescent dye Alexa488”, the Kd in assay [1] (FP, Alexa488-labelled protein 1 nM, unlabelled complex titrated, pH 8.0, 1-2h, read-out: K D of Alexa488-labelled adaptor protein for PRMT5–MEP50 (FP)) came out at 9.1 ± 1.5 nM; in assay [2] (FP, Alexa488-labelled protein 1 nM, unlabelled complex titrated, pH 8.0, 1-2h, read-out: K D of Alexa488-labelled adaptor protein for TIM–MEP50 (FP)), 4.1 ± 0.6 nM; with PRMT5–MEP50 (Supplement Table S4, indicator 10 nM, 25 °C, read-out: Affinity constant, PRMT5-MEP50 (Table S4, FIDA)), 39.3 nM; with PRMT5–MEP50 (indicator (Alexa488-labelled protein) 10 nM, HEPES buffer pH 8.0, 0.01% Tween 20, 25 °C, read-out: K D for PRMT5–MEP50 (FIDA)) it was 39.3 nM; with TIM–MEP50 (Supplement Table S4, indicator 10 nM, 25 °C, read-out: Affinity constant, TIM-MEP50 (Table S4, FIDA)), 64.1 nM; with TIM–MEP50 (indicator (Alexa488-labelled protein) 10 nM, HEPES buffer pH 8.0, 0.01% Tween 20, 25 °C, read-out: K D for TIM–MEP50 (FIDA)), 64.1 nM.
